“Also recorded” adds a separate entry of the source.
Legend:
β1-integrin = test: Confocal microscopy of phospho-CagA and β1-integrin co-localization; assay type: cell-based; details: Hp-infected cells, preincubation with 100 µM HHI (Fig. 7C)
Experimental: (§1) For immunofluorescence staining, cells were grown for 24 h on glass coverslips, then fixed (4% paraformaldehyde in PBS), and permeabilized (0.2% Triton X-100 in PBS). Immunostaining was performed using anti-E-Cadherin (cl. 36 detects the intracellular domain, BD Biosciences), anti-E-Cadherin (HecD-1 detects the extracellular domain), ZO-1 (Invitrogen), anti-CagA (Immunological and Biochemical Testsystems GmbH, Reutlingen, Germany), anti-β1-integrin and anti-Hp. Secondary antibodies were labeled with Alexa-488 or Alexa-546 (Invitrogen). Filamentous actin was detected with Alexa Fluor 546-conjugated phalloidin (Invitrogen). For nuclei staining, 4',6-diamin-2-phenylin-dol-dihydrochloride (DAPI, Roche) was used as recommended by the manufacturer's instructions. Samples were analyzed by confocal laser scanning microscopy using a Zeiss LSM 510 Meta confocal microscope. Images were further processed using Corel Photopaint.

Hp [1] = test: Hp translocation through the intercellular space of confluent monolayers (confocal microscopy, filter CFU); assay type: cell-based, Helicobacter pylori
Experimental: (§2) Hp strains Hp26695 and P12 were cultured on agar plates containing 10% horse serum under microaerophilic conditions at 37°C for 48 hours. For infection, bacteria were harvested in PBS Dulbecco's medium, pH 7.4, added to the host cells at a multiplicity of infection (MOI) of 50 or 100 for the indicated time periods and monitored using an inverse phase-contrast microscope (model TS 100, INTAS). To quantify bacteria translocating through cellular monolayers, MKN-28 cells were grown to confluence on filters prior to infection with Hp for 48 h. Translocating Hp were cultured and CFU were counted. All experiments were repeated 3-4 times.
as §1, with “For nuclei staining, 4',6-diamin-2-phenylin-dol-dihydrochloride (DAPI, Roche) was used as recommended by the manufacturer's instructions.” left out, “Images were further processed using Corel Photopaint.” left out

interleukin-8 (IL-8) = test: Interleukin-8 (IL-8) ELISA; assay type: cell-based, human; details: MKN-28, Hp 8 h, 16 h and 36 h, 100 µM HHI (Fig. 12B)
Experimental: Determination of IL-8 release was performed by applying a commercially available IL-8 specific ELISA assay system (Bender Medsystems, eBioscience Inc., San Diegeo, CA, USA). In brief, MKN-28 cells were incubated with Hp 8-36 h. Cell culture supernatants were collected, centrifuged, and stored at -80°C for subsequent IL-8 quantification. The IL-8 release was determined as recommend by the manufacturer's instructions.

HtrA = test: In vitro cleavage of recombinant E-Cadherin by HtrA (Western blot); assay type: biochemical, Helicobacter pylori; details: 100 ng recombinant E-Cadherin, 100 ng/µl HtrA, 16 h
Experimental: (§3) For in vitro cleavage studies, recombinant E-Cadherin, EGFR and JAM chimera, IgA or Casein, (R&D Systems, Wiesbaden, Germany) were incubated with HtrA^wt, HtrA^S205A or MMP7 in 50 mM HEPES (pH 7.4) at 37°C for 16 h. Where indicated, HHI or MMP inhibitor II were added. Reactions were stopped by boiling in Laemmli buffer, followed by 8% SDS-PAGE and Western blotting.

MKN-28 cells [2] = test: Co-immunoprecipitation of β-Catenin and p120ctn in Hp-infected cells; assay type: cell-based, human; details: Hp 6 h, 100 µM HHI (Fig. 5B)
Experimental: Interaction between β-Catenin and p120^ctn was analyzed by co-immunoprecipitation studies. Cells were lysed and β-Catenin and p120^ctn were immunoprecipitated from cell lysates. Immobilized protein complexes were washed three times with lysis buffer, boiled in Laemmli buffer, separated by SDS-PAGE, and blotted on membranes.

MCF-7 = test: In-situ immunofluorescence of E-Cadherin in Hp-infected cells; assay type: cell-based, human; details: MCF-7, Hp 16 h, 100 µM HHI (Fig. 5A)
Experimental: as §1

CagA = CagA injection and phosphorylation in infected monolayers (Western blot); assay type: cell-based, Helicobacter pylori; details: MKN-28 monolayers
Experimental: Cells were harvested in lysis buffer (20 mM Tris-HCl, pH 7.5, 1 mM ETDA, 100 mM NaCl, 1% Triton X-100, 0.5 % sodium deoxycholate, 0.1% SDS, 1 x complete protease inhibitors (Roche, Basel, Switzerland), 1 mM Na3VO4, 1 mM sodium molybdate, 20 mM NaF, 10 mM sodium pyrophosphate, 20 mM β-glycerophosphate) and separated by SDS-PAGE. Proteins were transferred onto PVDF membranes, blocked with RotiBlock (Roth, Karlsruhe, Germany), and probed with anti-E-Cadherin cl. 36 (detects intracellular E-Cadherin domain). To detect CTF1 and CTF2 by Western blots an anti-E-Cadherin polyclonal antibody from Cell Signaling Technologies , Danvers, MA, USA] was used. Quantification of CTF and NTF fragments was performed using the Fusion FX-7 image analyzer and Bio-1D analysis software (Vilber Lourmat Deutschland GmbH, Eberhardzell, Germany). Monoclonal antibodies HecD1 and H-108 against the extracellular domain of E-Cadherin (NTF) were obtained from Calbiochem, Merck, Darmstadt, Germany and Santa Cruz, Santa Cruz, CA, USA, respectively. Expression of Occludin, ZO-1 (Invitrogen), JAM1, β-Catenin, p120^ctn (BD Biosciences, New Jersey, USA), ADAM10, EGFR (Santa Cruz), GAPDH (Abcam, Cambridge, UK), β-Actin (Sigma), CagA (Aalto Bio Reagents Ltd., Dublin, Ireland) was analyzed using specific antibodies. […]

MKN-28 cells [3] = test: Cell aggregation assay; assay type: cell-based, human; details: 50 ng/µl HtrAwt plus 100 µM HHI (Fig. 4E)
Experimental: For cell aggregation assays, 2 x 10^5 cells were trypsinized and seeded into BSA-coated 24-well plates, each well containing 500 µl of cell aggregation buffer (10 mM HEPES (pH 7.4), 150 mM NaCl, 0.7 mM CaCl2, 1% BSA, 0.01% trypsin). After stimulation at 37°C for 30 min on a rocking platform, cells were fixed in 500 µl of 4% paraformaldehyde for 20 min and observed using an inverse phase-contrast microscope.

TCF/LEF1 = test: TOPflash/FOPflash luciferase reporter gene experiment; assay type: cell-based, human; details: MKN-28, Hp 24 h, 50 µM HHI (Fig. 5C)
Experimental: MKN-28 cells were cultured in 24-well plates and grown to 60% confluence. Cells were transfected with 100 ng TOPflash or 100 ng FOPflash (Upstate, Millipore, Bad Schwalbach/Taunus, Germany) and 4 ng phRL Null. As a positive control, cells were co-transfected with 100 ng β-Catenin (β-Cat^S33A) or empty vector for 12 h using Gene Juice transfection reagent (Novagen, Merck, Darmstadt, Germany) as recommended by the manufacturer's instructions. Eighteen hours after transfection, cells were infected with Hp at an MOI of 50, or left untreated. In further approaches, cells were incubated with 50 ng/µl HtrA^wt or HtrA^S205A mutant. After 24 h, cells were harvested in 100 µl reporter lysis buffer (Promega) and luciferase activity was determined in a dual channel luminometer. Results were normalized for transfection efficiency of cotransfected renilla luciferase plasmid.

Hp [4] = test: Hp adherence and viability, colony forming units after infection of MKN-28 cells; assay type: cell-based, Helicobacter pylori
Experimental: For secretome analysis, Hp was grown in protein-free liquid brain heart infusion (BHI) medium (Merck) supplemented with β-cyclodextrin for 48 hours (Bumann et al., 2002). Supernatants of Hp BHI cultures were sterilized by filtration. Lysates of Hp were obtained by sonication in PBS containing 0.1% Triton X-100. To quantify colony forming units (CFU) of Hp, cells were infected with Hp in the presence or absence of HHI. After 16-24 h cells were washed twice with PBS, harvested in BHI supplemented with β-cyclodextrin and seeded on Hp plates. After 72 h, colonies were counted.

MMP-7 = target: T1, MMP-7 (Homo sapiens, UniProt P09237); test: In vitro cleavage of recombinant E-Cadherin by MMP-7 (Western blot); assay type: biochemical; details: 5 ng/µl MMP-7, 16 h, 100 µM HHI (Fig. 11E)
T1 sequence (P09237 95-267): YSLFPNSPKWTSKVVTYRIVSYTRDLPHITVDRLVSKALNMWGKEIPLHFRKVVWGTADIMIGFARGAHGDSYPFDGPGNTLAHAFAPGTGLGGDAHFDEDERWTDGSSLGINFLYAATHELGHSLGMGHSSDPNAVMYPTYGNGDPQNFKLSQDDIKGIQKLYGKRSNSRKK
Experimental: as §3

MKN-28 cells [5] = test: Hp-induced ectopic E-Cadherin shedding in infected cells (Western blot of supernatants and lysates); assay type: cell-based, human; details: 100 µM HHI
Experimental: The human gastric adenocarcinoma cell line MKN-28 was grown in RPMI1640 medium (Biochrom, Berlin, Germany) and human breast cancer cells (MCF-7) in DMEM medium (Biochrom) containing 4 mM glutamine (Invitrogen, Karlsruhe, Germany]), and 10% FCS (Biowest, Nuaillé, France) in a humidified 5% CO2 (MKN-28) or 10% CO2 (MCF-7) atmosphere at 37°C. Cells were seeded in tissue culture plates 48 hours before infection and grown to confluence. 1-2 h hours prior to infection, medium was replaced by fresh serum-free media. Where indicated, cells were incubated with indicated concentrations of HHI or MMP inhibitor II (blocks MMP1, MMP3, MMP7 and MMP9) (Calbiochem, Merck , Darmstadt, Germany).
as §2, with “times. […]” for “times.”

With `CCOc1ccc2nc(NC(=O)CSc3nnc(-c4ccc(S(=O)(=O)N5CCCC5)cc4)o3)sc2c1` [HHI] the “co-localization of phospho-CagA with β1-integrin at the basolateral membrane” value (β1-integrin) was “efficiently prevented”, the “Hp invasion through the intercellular space of confluent MKN-28 cells growing on filters” value (Hp [1]; 100 µM HHI, Hp 48 h, CFU counted, p = 0.01 (Fig. 6B)) was “significantly inhibited” and the “number of translocating bacteria in intercellular spaces” value (Hp [1]; MKN-28 monolayers, confocal microscopy, 48 h, 100 µM HHI (Fig. 6A)) was “greatly reduced”. For the same molecule, the “T4SS-dependent secretion of interleukin-8 (IL-8) of Hp-infected cells” value (interleukin-8 (IL-8)) was “unaffected”, the “HHI concentration sufficient to partly block HtrA-mediated E-Cadherin cleavage” value (HtrA) was 10 µM and the “HHI concentration that blocked cleavage completely” value (HtrA) was 30 µM. The “loss of β-Catenin in the precipitated p120ctn immunocomplex upon Hp infection” value (MKN-28 cells [2]) was “not reverted”, the “Hp-induced loss of E-Cadherin-dependent intercellular adhesion” value (MCF-7) was “blocks; also recorded: efficiently blocked” and the “amount of total CagA” value (CagA; 100 µM HHI preincubation (Fig. 7A)) was “not altered”. For the same molecule, the “injected phospho-CagA in Hp-infected cells” value (CagA; 100 µM HHI preincubation, 16 h and 24 h (Fig. 7A)) was “decreased”, the “E-Cadherin-mediated cell aggregation of HtrAwt-treated cells” value (MKN-28 cells [3]) was “did not form aggregates, unless HHI was also added” and the “Hp-induced luciferase activity (TOP/FOP)” value (TCF/LEF1) was “unaffected”. For the same molecule, the “Hp adherence and Hp viability” value (Hp [4]; 100 µM HHI (Fig. 11C)) was “could be excluded; also recorded: not affecting”, the “relative CFU colony forming units (CFU)” value (Hp [4]; 100 µM HHI, 16 h and 24 h infection, colonies counted after 72 h (Fig. 11C)) was “no significant difference” and the “MMP7-mediated E-Cadherin cleavage activity” value (MMP-7) was “did not affect”. The “secretion of HtrA into the infected cell supernatant” value (MKN-28 cells [5]; 16 and 24 h (Fig. 4D)) was “could be excluded” and the “Hp-induced ectopic E-Cadherin cleavage in infected MKN-28 cells” value (MKN-28 cells [5]; Hp infection 16 and 24 h (Fig. 4D)) was “clearly inhibited”.

From patent publication EP2365091A1, “Method of screening for HtrA protease inhibitors useful for prophylaxis and therapy of a bacterial infection” (Paul-Ehrlich-Institut, priority 2010, dated 2011)
